Laboratory results reported in PubChem BioAssay AID743477 (Broad Institute, 2014).
Several values for one entry are separate records, joined by “and”; a condition that tells them apart may be missing. Identical values can stand only once. Activity calls are given as the source filed them.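 How the source made its calls: active means fitted curve drops to -35% activity change at a dose no higher than twice the top valid tested dose; inconclusive means no clear call, values can overlap the other calls; inactive means the rest, including effects opposite to the expected drop.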

System: not listed separately
Experiment: TC71 Ewing sarcoma cell viability loss – luminescence, retest at dose, dry powder, confirmation (AID 743477)
Conditions: TC71 Ewing sarcoma viability, CellTiter-Glo ATP, 72 h; at 1.6 µM (top of the series)

SMILES | activity change, negative = cytotoxicity
CCN(CCO)CCCOc1ccc2c(Nc3cc(CC(=O)Nc4cccc(F)c4)[nH]n3)ncnc2c1 | -35.4% (inactive)

Same assay, conditions: TC71 Ewing sarcoma viability, CellTiter-Glo ATP, 72 h; at 6 µM (top of the series)

SMILES | activity change, negative = cytotoxicity
Clc1ccc(-c2cnc3ccc(-c4ccccc4)cn23)cc1 | -1.71% (inactive)

Same assay, conditions: TC71 Ewing sarcoma viability, CellTiter-Glo ATP, 72 h; at 12 µM (top of the series)

SMILES | activity change, negative = cytotoxicity
COc1ccc(NC(=O)Nc2ccc3c(c2)C(=O)N([C@@H](C)CO)C[C@H](C)[C@H](CN(C)Cc2ccc4c(c2)OCO4)O3)cc1 | -31.5% (inactive)

Same assay, conditions: TC71 Ewing sarcoma viability, CellTiter-Glo ATP, 72 h; at 26 µM (top of the series)

SMILES | activity change, negative = cytotoxicity
COc1ccc(C2CNC(=O)C2)cc1OC1CCCC1 (stereo not drawn) | 1.67% (inactive)
N#CC1=C(N)Oc2cc(N)ccc2C1c1ccc(Cl)cc1 (stereo not drawn) | -10.5% (inactive)
O=C(Nc1c(Cl)cncc1Cl)c1ccc(OC(F)F)c(OCC2CC2)c1 | -7.16% (inactive)
CN1c2ccc(-c3ccc(C#N)cc3)cc2[C@H]2[C@H](CCN2S(=O)(=O)c2ccc(F)cc2)[C@H]1CO | -15.7% (inactive)
CN(C(=O)CCCOc1ccc2[nH]c(=O)ccc2c1)C1CCCCC1 | -11% (inactive)
N#CC1=C(N)Oc2cc(N)ccc2C12C(=O)Nc1ccc(Br)cc12 (stereo not drawn) | -13% (inactive)
COc1ccc(CNc2nc(N3CCC[C@H]3CO)ncc2C(=O)NCc2ncccn2)cc1Cl | -6.81% (inactive)
CCC(C)(C)C(=O)O[C@H]1C[C@@H](C)C=C2C=C[C@H](C)[C@H](CC[C@@H]3C[C@@H](O)CC(=O)O3)[C@H]21 | -7.31% (inactive)
COc1ccc(C2=Nn3c(nnc3-c3ccccc3)SC2)cc1OC | -10.7% (inactive)
C[C@]1(c2nc3c(C(N)=O)cccc3[nH]2)CCCN1 | -3.66% (inactive)
COc1ccccc1C1C(C#N)=C(N)Oc2cc(N)ccc21 (stereo not drawn) | -24.3% (inactive)
COc1ccc(-c2cc(NC(C)=O)c3ncc(-c4ccc(OC)c(OC)c4)n3c2)cc1 | -8.1% (inactive)
COC(=O)c1ccc(C2C(C#N)=C(N)Oc3cc(N)ccc32)cc1 (stereo not drawn) | -13.5% (inactive)
COc1ccc(C2C(C#N)=C(N)Oc3cc(N)ccc32)cc1 (stereo not drawn) | -6.57% (inactive)
Cc1ccc(C2C(C#N)=C(N)Oc3cc(N)ccc32)cc1 (stereo not drawn) | -0.007% (inactive)

Same assay, conditions: TC71 Ewing sarcoma viability, CellTiter-Glo ATP, 72 h; at 50 µM (top of the series)

SMILES | activity change, negative = cytotoxicity
O=P1(NCCCl)OCCCN1CCCl (stereo not drawn) | 3.6% (inactive)

System: TC71 Ewing sarcoma viability, CellTiter-Glo ATP, 72 h
Experiment: as above
Conditions: not given

SMILES | AC35
COc1ccc(C(=O)CC2(O)C(=O)Nc3c(Cl)ccc(Cl)c32)cc1 (stereo not drawn) | 2930 nM
COc1ccccc1-c1nnc2n1N=C(c1ccc(O)c(O)c1)CS2 | 1320 nM
N#CC1=C(N)Oc2ccc3ccccc3c2C1c1cccc(F)c1 (stereo not drawn) | 677 nM
C[C@@]1(C(=O)Nc2ccc(F)nc2)CCCN1c1nc(Nc2cc(C3CC3)[nH]n2)c2cccn2n1 | 458 nM
CCOC(=O)CCNc1cc(N2CCc3ccccc3CC2)nc(-c2ccccn2)n1 | 2590 nM
N#CC1=C(N)Oc2cc(N)ccc2C1c1ccccc1 (stereo not drawn) | 12800 nM
Cc1ccc(S(=O)(=O)N2CC[C@@H]3[C@@H](CO)Nc4ccc(-c5ccc(C#N)cc5)cc4[C@@H]32)cc1 | 18600 nM
CC[C@@]1(O)C(=O)OCc2c1cc1n(c2=O)Cc2cc3c(CN(C)C)c(O)ccc3nc2-1 | 29 nM
Cc1cccc(C2C(C#N)=C(N)Oc3cc(N)ccc32)c1 (stereo not drawn) | 689 nM
CN1c2ccc(-c3ccc(C#N)cc3)cc2[C@H]2[C@H](CCN2S(=O)(=O)c2cccc(F)c2)[C@H]1CO | 3760 nM
CN(C)c1ccc2c(c1)OC(N)=C(C#N)C2c1cccc(F)c1 (stereo not drawn) | 21.4 nM
CN1CCN(CCOc2cc(OC3CCOCC3)c3c(Nc4c(Cl)ccc5c4OCO5)ncnc3c2)CC1 | 21200 nM
COc1ccccc1-c1nnc2n1N=C(c1ccc3c(c1)OCO3)CS2 | 20.7 nM
N#CC1=C(N)Oc2cc(O)ccc2C1c1cccc(Br)c1 (stereo not drawn) | 2720 nM
COc1ccc(-c2cc(NC=O)c3ncc(-c4ccc(OC)c(OC)c4)n3c2)cc1 | 563 nM
N#CC1=C(N)Oc2cc(N)ccc2C1c1ccccc1Cl (stereo not drawn) | 10600 nM
COc1ccccc1S(=O)(=O)N1CC[C@@H]2[C@@H](CO)Nc3ccc(-c4ccc(C#N)cc4)cc3[C@@H]21 | 10500 nM
COc1cccc(S(=O)(=O)N2CC[C@@H]3[C@@H](CO)Nc4ccc(-c5ccc(C#N)cc5)cc4[C@@H]32)c1 | 21000 nM
COc1ccc(S(=O)(=O)N2CC[C@@H]3[C@@H](CO)Nc4ccc(-c5cccc(C#N)c5)cc4[C@@H]32)cc1 | 4140 nM
CCCCc1ccc2nc(NC(=O)OC)[nH]c2c1 | < 50 nM

SMILES | AC35
Cc1c([C@H](C(Cl)Cl)[C@H](O)[C@H]2C[C@H](C)C(=O)O2)ccc2c1C(=O)[C@H]1[C@H]2C[C@@H](Br)[C@@]23O[C@@H](CO[C@H]2O)C[C@]13C | < 50 nM
CCc1c2c(nc3ccc(O)cc13)-c1cc3c(c(=O)n1C2)COC(=O)C3(O)CC (stereo not drawn) | 1.99 nM
O=C(Cc1ccc(-c2ccc(OCCN3CCOCC3)cc2)cn1)NCc1ccccc1 | < 23.5 nM
COc1ccc(S(=O)(=O)N(C(C)=O)c2ccc(OC(C)=O)c3ccccc23)cc1[N+](=O)[O-] | 4460 nM
Cc1cc(Nc2cc(N3CCN(C)CC3)nc(Sc3ccc(NC(=O)C4CC4)cc3)n2)n[nH]1 | 2150 nM
COc1ccc(C2=Nn3c(nnc3-c3ccccc3OC)SC2)cc1OC | 61.3 nM
Clc1ccccc1-c1nnc2n1N=C(c1ccc3c(c1)OCO3)CS2 | 411 nM
COc1ccc(C2=Nn3c(nnc3-c3ccccc3F)SC2)cc1OC | 3340 nM
COc1cc(C2C(C#N)=C(N)Oc3cc(N(C)C)ccc32)cc2c1OCO2 (stereo not drawn) | 132 nM
N#CC1=C(N)Oc2cc(N)ccc2C1c1cccc(F)c1 (stereo not drawn) | 1770 nM
N#CC1=C(N)Oc2cc(N)ccc2C1c1cccc(Br)c1 (stereo not drawn) | 183 nM
Cn1cc(-c2ccncc2)c(-c2ccc(OCc3ccc4ccccc4n3)cc2)n1 | 20000 nM
COc1ccc(C2=Nn3c(nnc3-c3ccccc3Cl)SC2)cc1OC | 427 nM
N#Cc1ccc(-c2ccc3c(c2)[C@H]2[C@H](CCN2S(=O)(=O)c2cccc(F)c2)[C@@H](CO)N3)cc1 | 7800 nM
C=C([C@@H](O)[C@@H](C)O)[C@@H](OC)[C@]1(C)Cc2cc3cc(O[C@H]4CC(OC5CC(O)C(O)C(C)O5)C(O)C(C)O4)cc(O)c3c(O)c2C(=O)[C@H]1OC1CC(OC2CC(OC3CC(C)(O)C(O)C(C)O3)C(O)C(C)O2)C(O)C(C)O1 (stereo partly drawn) | 55.8 nM
CC(C)N1c2ccccc2C(c2ccc(F)cc2)C1/C=C/C(O)CC(O)CC(=O)O (stereo not drawn) | 2590 nM
N#CC1=C(N)Oc2cc(N)ccc2C1c1ccc2ccccc2c1 (stereo not drawn) | 11900 nM
COc1ccc(S(=O)(=O)N2CC[C@@H]3[C@H](CO)Nc4ccc(-c5ccc(C#N)cc5)cc4[C@@H]32)cc1 | 7920 nM
Cc1ccccc1C1C(C#N)=C(N)Oc2cc(N)ccc21 (stereo not drawn) | 13200 nM
N#Cc1ccc(-c2ccc3c(c2)[C@H]2[C@H](CCN2S(=O)(=O)c2ccccc2F)[C@@H](CO)N3)cc1 | 11000 nM

SMILES | AC35
N#CC1=C(N)Oc2cc(OC(=O)c3ccccc3)ccc2C1c1cccc(Br)c1 (stereo not drawn) | 3080 nM
Nc1ncnc2c1c(-c1cccc(OCc3ccccc3)c1)cn2C1CC(CN2CCCC2)C1 (stereo not drawn) | 10500 nM
COc1ccc(S(=O)(=O)N2CC[C@@H]3[C@@H](CO)Nc4ccc(-c5ccc(C#N)cc5)cc4[C@@H]32)cc1 | 3780 nM
N#CC1=C(N)Oc2cc3c(cc2C1c1cccc(Br)c1)OCO3 (stereo not drawn) | 49.7 nM
COc1ccc(-c2ccc3c(c2)[C@H]2[C@H](CCN2S(=O)(=O)c2ccc(OC)cc2)[C@@H](CO)N3C)cc1 | 3190 nM
CC1(C)CC(c2nc(-c3ccc4ccc(-c5ccccc5)nc4c3)c3c(N)nccn23)C1 | 4500 nM
O=C(c1cc(Cc2n[nH]c(=O)c3ccccc23)ccc1F)N1CCN(C(=O)C2CC2)CC1 | 2300 nM
Cc1nc(Nc2ncc(C(=O)Nc3c(C)cccc3Cl)s2)cc(N2CCN(CCO)CC2)n1 | 26800 nM
CC(C)(O)CCc1ccc(O)c2c(=O)c3c(O)c4c(cc3oc12)O[C@H]1OC=C[C@@]41O | < 26 nM
Cc1ccc([N+](=O)[O-])cc1S(=O)(=O)N(C)C | 7950 nM
COc1ccc(S(=O)(=O)N2CC[C@@H]3[C@@H](CO)N(C)c4ccc(-c5ccc(F)cc5)cc4[C@@H]32)cc1 | 3410 nM
COc1cccc2c1C(=O)c1c(O)c3c(c(O)c1C2=O)C[C@@](O)(C(=O)CO)C[C@@H]3O[C@H]1C[C@H](N)[C@H](O)[C@H](C)O1 | < 50 nM
Nc1ccn([C@@H]2O[C@H](CO)[C@H](O)C2O)c(=O)n1 (stereo partly drawn) | 585 nM
COc1ccc(-c2ccc3c(c2)[C@H]2[C@H](CCN2S(=O)(=O)c2ccc(OC)cc2)[C@@H](CO)N3)cc1 | 3720 nM
COc1cccc(C2C(C#N)=C(N)Oc3cc(N)ccc32)c1 (stereo not drawn) | 571 nM
CC[C@]1(O)CC2CN(CCc3c([nH]c4ccccc34)[C@@](C(=O)OC)(c3cc4c(cc3OC)N(C=O)[C@H]3[C@@](O)(C(=O)OC)[C@H](OC(C)=O)[C@]5(CC)C=CCN6CC[C@]43[C@@H]65)C2)C1 (stereo partly drawn) | < 1.5 nM
COc1ccc(OC)c(-c2nnc3n2N=C(c2ccc(OC)c(OC)c2)CS3)c1 | 27.6 nM and 22.6 nM
COc1cc([C@@H]2c3cc4c(cc3[C@@H](O[C@@H]3O[C@@H]5CO[C@@H](C)O[C@H]5[C@H](O)[C@H]3O)[C@H]3COC(=O)[C@H]23)OCO4)cc(OC)c1O | 577 nM
CCC(C)C(=O)OC1CC(C)C=C2C=CC(C)C(CCC(O)CC(O)CC(=O)O)C21 (stereo not drawn) | 45300 nM
